From PMC10537403 (Viruses, 2023)
No end group written: not given here.

Experiments:
Type in all cases: cell-based
[1] = tested on: bovine herpesvirus type 1 (BoHV-1, Cooper strain); test: Antiviral activity against BoHV-1, plaque assay, time of addition assays; details: MDBK cells
[2] = tested on: caprine herpesvirus type 1 (CpHV-1, reference Swiss strain E/CH); test: Antiviral activity against CpHV-1, plaque assay, time of addition assays; details: MDBK cells
[3] = tested on: VERO/hSLAM, BHK-21, and MDBK cell lines; test: Cytotoxicity, MTT assay; details: 2 and 24 h, peptides […] to 100 μM
[4] = tested on: Schmallenberg virus (SBV); details: BHK-21 cells, SBV 200 TCID50 incubated with peptide 1 h, CPE at 72 h, MTT staining
[5] = tested on: canine distemper virus (CDV, strain Onderstepoort); test: Antiviral activity against CDV, plaque assay, time of addition assays; details: VERO/hSLAM cells, co-treatment, virus pre-treatment, cell pre-treatment, post-treatment

Row | Substance | Antiviral action against BoHV-1 (in words) [1] | Antiviral action against CpHV-1 (in words) [2] | Cytotoxicity (in words) [3] | Activity against SBV infection (in words) [4] | Inhibitory effect against CDV in all the time-addition assays (in words) [5]
1 | H-GILDAIKAIAKAAG-OH [Hylaseptin-P1, amphibian peptide derived from Leptopelis aubryi] | no antiviral action | no antiviral action | not cytotoxic even at higher concentrations tested | any activity | did not show an inhibitory effect
2 | H-GLADFLNKAVGKVVDFVKS-NH2 [Deserticolin-1, amphibian peptide secreted by Crinia deserticola] | no antiviral action | no antiviral action | not cytotoxic even at higher concentrations tested | any activity | did not show an inhibitory effect
3 | RIGVLLARLPKLFSLFKLMGKKV-NH2 [RV-23] | – | – | – | able to reduce SBV infection with a higher efficacy | –
